Test results taken from patent US10562898B2, “Substituted benzenesulfonamides as inhibitors of alpha-4 beta-7 integrin activity” (EA PHARMA CO., LTD., priority 2016, dated 2020).

Biological target: T1, α4β7 integrin (Homo sapiens, UniProt P13612+P26010)
T1 construct: a cell line RPMI-8866, which is known to express α4β7 integrin; endogenous in cells; host or cells: RPMI-8866 (human B cell line)
T1 sequence (P13612 34-1032): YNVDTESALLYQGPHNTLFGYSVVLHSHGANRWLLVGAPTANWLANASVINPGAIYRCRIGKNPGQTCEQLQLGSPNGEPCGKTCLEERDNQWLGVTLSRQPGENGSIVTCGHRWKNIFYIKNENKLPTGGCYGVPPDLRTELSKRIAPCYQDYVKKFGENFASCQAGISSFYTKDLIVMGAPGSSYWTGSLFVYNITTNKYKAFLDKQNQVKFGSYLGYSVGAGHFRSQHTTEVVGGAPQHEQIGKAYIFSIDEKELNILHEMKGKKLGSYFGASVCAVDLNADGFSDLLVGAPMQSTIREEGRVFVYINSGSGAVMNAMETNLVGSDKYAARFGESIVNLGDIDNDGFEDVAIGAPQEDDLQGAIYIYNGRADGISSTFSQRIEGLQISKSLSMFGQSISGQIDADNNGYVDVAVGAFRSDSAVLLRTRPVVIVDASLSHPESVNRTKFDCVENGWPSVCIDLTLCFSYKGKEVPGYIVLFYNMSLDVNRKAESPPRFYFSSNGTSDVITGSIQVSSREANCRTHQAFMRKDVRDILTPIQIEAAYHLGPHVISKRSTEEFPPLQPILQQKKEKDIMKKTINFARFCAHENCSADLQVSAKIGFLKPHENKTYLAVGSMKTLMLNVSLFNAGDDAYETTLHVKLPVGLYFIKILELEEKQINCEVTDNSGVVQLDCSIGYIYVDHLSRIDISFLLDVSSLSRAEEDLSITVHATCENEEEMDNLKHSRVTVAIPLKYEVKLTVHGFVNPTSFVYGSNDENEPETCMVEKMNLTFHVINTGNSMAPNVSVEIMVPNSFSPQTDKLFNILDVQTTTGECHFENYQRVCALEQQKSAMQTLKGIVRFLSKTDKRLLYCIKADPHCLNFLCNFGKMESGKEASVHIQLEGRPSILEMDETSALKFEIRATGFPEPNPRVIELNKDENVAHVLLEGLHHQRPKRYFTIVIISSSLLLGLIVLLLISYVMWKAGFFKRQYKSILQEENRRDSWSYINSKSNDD
T1 sequence (P26010 20-798): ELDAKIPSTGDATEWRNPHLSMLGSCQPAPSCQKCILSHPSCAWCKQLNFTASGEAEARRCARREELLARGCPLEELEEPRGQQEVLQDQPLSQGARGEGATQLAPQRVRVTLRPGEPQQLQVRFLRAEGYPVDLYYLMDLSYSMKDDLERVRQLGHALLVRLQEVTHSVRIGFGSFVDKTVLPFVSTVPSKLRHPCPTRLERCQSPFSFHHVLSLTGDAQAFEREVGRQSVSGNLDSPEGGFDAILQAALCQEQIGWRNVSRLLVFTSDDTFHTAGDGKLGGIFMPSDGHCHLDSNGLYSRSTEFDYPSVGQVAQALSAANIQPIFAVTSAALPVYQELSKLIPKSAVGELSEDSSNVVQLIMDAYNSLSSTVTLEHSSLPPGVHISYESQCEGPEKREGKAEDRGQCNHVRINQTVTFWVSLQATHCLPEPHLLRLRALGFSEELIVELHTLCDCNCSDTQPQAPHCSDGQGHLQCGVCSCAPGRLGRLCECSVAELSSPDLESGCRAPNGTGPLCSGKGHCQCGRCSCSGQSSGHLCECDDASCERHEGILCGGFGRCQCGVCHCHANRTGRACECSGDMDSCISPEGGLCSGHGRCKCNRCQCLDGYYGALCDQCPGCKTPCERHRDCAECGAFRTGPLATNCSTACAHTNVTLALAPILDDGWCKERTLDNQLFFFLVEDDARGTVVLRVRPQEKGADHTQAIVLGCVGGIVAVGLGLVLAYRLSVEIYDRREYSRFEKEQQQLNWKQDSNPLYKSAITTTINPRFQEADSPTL
Assay: MAdCAM-1/α4β7 integrin binding inhibitory activity evaluation test in presence of serum
Type: cell-based
Conditions: RPMI-8866 cells, recombinant mouse MAdCAM-1/Fc, 50% human serum; read-out: α4β7 Serum Added IC50
Description: (3) MAdCAM-1/α4β7 Integrin Binding Inhibitory Activity Evaluation Test in Presence of Serum (1)
Each test substance was measured in terms of an ability to inhibit the MAdCAM-1 binding of a human B cell line, namely, a cell line RPMI-8866, which is known to express α4β7 integrin.
A solution of recombinant mouse MAdCAM-1/Fc (R&D Systems, Inc.) (1 μg/mL) diluted with a buffer A (carbonate buffer, pH 9.6) was added in an amount of 50 μL/well to a 96-well microtiter plate, followed by incubation at 4° C. overnight. After the plate was washed with PBS once, 150 μL/well of Block Ace (Snow Brand Milk Products Co., Ltd.) was added, followed by incubation at room temperature for 2 hours. After removal, the plate was washed with PBS once.
Then, 100 μL of the RPMI-8866 cells (2×10^6 cells/mL) and 100 of the test substance at each of various concentrations diluted with a binding buffer (DMEM containing 40 mM HEPES, 0.2% BSA, and 4 mM MnCl2) were added to the plate coated with the MAdCAM-1/Fc (5×10^5 cells/well) such that 50% human serum was contained at the final concentration. Then, incubation was allowed to proceed at 30° C. for 15 to 60 minutes. After the cells were bound to the wells, the plate was washed with PBS to remove unbound cells. A buffer C (PBS containing 1.5% Triton X-100) was added in an amount 50 μL/well to the plate to lyse the bound RPMI-8866 cells. After 30 μL of a substrate buffer (Promega, CytoTox 96 Non-Radioactive Cytotoxicity Assay) was added to 30 μL of the cell lysate, a reaction was allowed to proceed at room temperature in the dark for 30 minutes. After 30 μL of a stop solution (Promega, CytoTox 96 Non-Radioactive Cytotoxicity Assay) was added to each, and then an absorbance at 490 nm was measured using a plate reader. The absorbance obtained here represents a detection result of an activity of lactate dehydrogenase (LDH) eluted in the supernatant of each well, that is, the absorbance is proportional to the number of RPMI-8866 cells bound to the MAdCAM-1 and thus remaining on the plate. The test was performed in duplicate. Provided that the absorbance of the well containing no test substance was 100%, a cell binding rate with the test substance at each of the various concentrations was figured out, and a concentration IC50 which brought about 50% binding inhibition was calculated.

Row | IC50 [nM] | SMILES
1 | 14 | Cn1ccc(=O)n(-c2ccc(C[C@H](NC(=O)c3cc(F)c(NS(=O)(=O)c4ccc(NC(=O)C(C)(C)C(F)(F)F)cc4)cc3F)C(=O)O)cn2)c1=O [Compound A57]
2 | 12 | Cc1cn(C)c(=O)n(-c2ccc(C[C@H](NC(=O)c3cc(F)c(NS(=O)(=O)c4ccc(NC(=O)C(C)(C)C(F)(F)F)cc4)cc3F)C(=O)O)cn2)c1=O [Compound A58]
3 | 93 | Cn1ccc(=O)n(-c2ccc(C[C@H](NC(=O)c3cc(F)c(NS(=O)(=O)c4ccc(NC(=O)C5(C#N)CC5)cc4)cc3F)C(=O)O)cn2)c1=O [Compound A59]
4 | 52 | Cc1cn(C)c(=O)n(-c2ccc(C[C@H](NC(=O)c3cc(F)c(NS(=O)(=O)c4ccc(NC(=O)C5(C#N)CC5)cc4)cc3F)C(=O)O)cn2)c1=O [Compound A60]
5 | 62 | CCC(CC)C(=O)Nc1ccc(S(=O)(=O)Nc2cc(F)c(C(=O)N[C@@H](Cc3ccc(-n4c(=O)ccn(C)c4=O)nc3)C(=O)O)cc2F)cc1 [Compound A61]
6 | 22 | Cn1ccc(=O)n(-c2ccc(C[C@H](NC(=O)c3cc(F)c(NS(=O)(=O)c4ccc(NC(=O)C(C)(C)CO)cc4)cc3F)C(=O)O)cn2)c1=O [Compound A62]
7 | 12 | Cc1cn(C)c(=O)n(-c2ccc(C[C@H](NC(=O)c3cc(F)c(NS(=O)(=O)c4ccc(NC(=O)C(C)(C)CO)cc4)cc3F)C(=O)O)cn2)c1=O [Compound A63]
8 | 89 | Cn1ccc(=O)n(-c2ccc(C[C@H](NC(=O)c3cc(F)c(NS(=O)(=O)c4ccc(NC(=O)C5CCCC5)cc4)cc3F)C(=O)O)cn2)c1=O [Compound A64]
9 | 50 | Cc1cn(C)c(=O)n(-c2ccc(C[C@H](NC(=O)c3cc(F)c(NS(=O)(=O)c4ccc(NC(=O)C5CCCC5)cc4)cc3F)C(=O)O)cn2)c1=O [Compound A65]
10 | 25 | Cn1c(C(F)(F)F)cc(=O)n(-c2ccc(C[C@H](NC(=O)c3cc(F)c(NS(=O)(=O)c4ccc(NC(=O)C(C)(C)C)cc4)cc3F)C(=O)O)cn2)c1=O [Compound A66]
11 | 14 | Cn1cc(C(F)(F)F)c(=O)n(-c2ccc(C[C@H](NC(=O)c3cc(F)c(NS(=O)(=O)c4ccc(NC(=O)C(C)(C)C)cc4)cc3F)C(=O)O)cn2)c1=O [Compound A67]
12 | 33 | Cc1cn(C)c(=O)n(-c2ccc(C[C@H](NC(=O)c3cc(F)c(NS(=O)(=O)c4ccc(NC(=O)C#CC(C)(C)C)cc4)cc3F)C(=O)O)cn2)c1=O [Compound A68]
13 | 16 | Cc1cn(C)c(=O)n(-c2ccc(C[C@H](NC(=O)c3cc(F)c(NS(=O)(=O)c4ccc(NC(=O)C(C)(C)C)cc4)cc3F)C(=O)O)nc2)c1=O [Compound A69]
14 | 33 | Cn1ccc(=O)n(-c2ccc(C[C@H](NC(=O)c3cc(F)c(NS(=O)(=O)c4ccc(NC(=O)C(C)(C)C)cc4)cc3F)C(=O)O)nc2)c1=O [Compound A70]
15 | 43 | Cc1cn(C)c(=O)n(-c2ccc(C[C@H](NC(=O)c3cc(F)c(NS(=O)(=O)c4ccc(NC(=O)C(C)C)cc4)cc3F)C(=O)O)cn2)c1=O [Compound A71]
16 | 28 | Cc1cc(=O)n(-c2ccc(C[C@H](NC(=O)c3cc(F)c(NS(=O)(=O)c4ccc(NC(=O)C(C)(C)C)cc4)cc3F)C(=O)O)nc2)c(=O)n1C [Compound A72]
17 | 37 | Cc1cn(C)c(=O)n(-c2ccc(C[C@H](NC(=O)c3cc(F)c(NS(=O)(=O)c4ccc(NC(=O)C(C)(C)C)s4)cc3F)C(=O)O)cn2)c1=O [Compound A73]
18 | 50 | Cc1cn(C)c(=O)n(-c2ccc(C[C@H](NC(=O)c3cc(F)c(NS(=O)(=O)c4ccc5c(NC(=O)C(C)(C)C)c[nH]c5c4)cc3F)C(=O)O)cn2)c1=O [Compound A74]
19 | 16 | CN1CCC(=O)N(c2ccc(C[C@H](NC(=O)c3cc(F)c(NS(=O)(=O)c4ccc(NC(=O)C(C)(C)C)cc4)cc3F)C(=O)O)cn2)C1=O [Compound A75, (2S)-2-[2,5-difluoro-4-[(4-pivalamidophenyl)sulfonamide]benzamido]-3-[6-(3-methyl-2,6-dioxotetrahydropyrimidin-1(2H)-yl)pyridin-3-yl]propanoic acid]
20 | 14 | Cc1cn(C)c(=O)n(-c2ccc(C[C@H](NC(=O)c3cc(F)c(NS(=O)(=O)c4cc5cc(NC(=O)C(C)(C)C)ccc5[nH]4)cc3F)C(=O)O)cn2)c1=O [Compound A76]
21 | 25 | Cc1cn(C)c(=O)n(-c2ccc(C[C@H](NC(=O)c3cc(F)c(NS(=O)(=O)c4c[nH]c5cc(NC(=O)C(C)(C)C)ccc45)cc3F)C(=O)O)cn2)c1=O [Compound A77]
